Laboratory results from PMC7912614, “(2-Aminobenzothiazole)-Methyl-1,1-Bisphosphonic Acids: Targeting Matrix Metalloproteinase 13 Inhibition to the Bone” (Pharmaceuticals, 2021).
Read-outs that look alike come from different tables or passages of the source.

Experiments:
MMP-13 = target: T1, MMP-13 (Homo sapiens, UniProt P45452); experiment: fluorometric MMP inhibition assay, MMP-13 catalytic domain; assay type: biochemical; conditions: for Ligand Efficiency MMP-13: calculated from IC50 values of Table 2; for IC50: catalytic domain, fluorometric assay, mean ± SEM of at least 3 experiments; for Selectivity MMP-2/13 / Selectivity MMP-8/13 / Selectivity MMP-9/13: ratio of IC50 values of Table 2
T1 construct: Catalytic domains of MMP-2, -8, -9, and -13 were obtained from Enzo Life Sciences; purchased Enzo Life Sciences
Protocol: (§1) Catalytic domains of MMP-2, -8, -9, and -13 were obtained from Enzo Life Sciences. 96-well white microtiter plates (Corning, NBS) were used to carry out the assays (in triplicate). The assay measurements were performed by preparing dilutions to six different concentrations (1 nM–100 µM) of each inhibitor in a fluorometric assay buffer (50 mM Tris·HCl pH 7.5, 200 mM NaCl, 1 mM CaCl2, 1 µM ZnCl2, 0.05% Brij-35, and 1% DMSO). Incubation of the enzyme and inhibitor solutions occurred for 15 min at room temperature; fluorogenic substrate solution (OmniMMP® = Mca-Pro-Leu-Gly-Leu-Dpa-Ala-Arg-NH2, Enzo Life Sciences, 2.5 µM final concentration or OmniMMP®RED = TQ3-GABA-Pro-Cha-Abu-Smc-His-Ala-Dab (6′-TAMRA)-Ala-Lys-NH2, Enzo Life Sciences, and 1 µM final concentration) was subsequently added. The assay was incubated for 2–4 h at 37 °C, after which a Perkin–Elmer Victor V3 plate reader was used to measure fluorescence (λex= 340 nm, λem = 405 nm or λex = 545 nm, λem = 572 nm). Included in the assay were control wells lacking any inhibitor. MMP activity was thus determined and expressed in relative fluorescence units (RFU). Percent inhibition was calculated from control wells and IC50 values were determined using GraphPad Prism 5.0 and are shown as mean ± SEM of at least three independent measurements, which were performed in triplicate.

MMP-9 [1] = target: T2, MMP-9 (Homo sapiens, UniProt P14780); experiment: fluorometric MMP inhibition assay, MMP-9 catalytic domain; assay type: biochemical; conditions: for IC50: catalytic domain, fluorometric assay, mean ± SEM of at least 3 experiments; for Ligand Efficiency MMP-9: calculated from IC50 values of Table 2
T2 construct: Catalytic domains of MMP-2, -8, -9, and -13 were obtained from Enzo Life Sciences; purchased Enzo Life Sciences
T2 sequence (P14780 107-444 limits assumed): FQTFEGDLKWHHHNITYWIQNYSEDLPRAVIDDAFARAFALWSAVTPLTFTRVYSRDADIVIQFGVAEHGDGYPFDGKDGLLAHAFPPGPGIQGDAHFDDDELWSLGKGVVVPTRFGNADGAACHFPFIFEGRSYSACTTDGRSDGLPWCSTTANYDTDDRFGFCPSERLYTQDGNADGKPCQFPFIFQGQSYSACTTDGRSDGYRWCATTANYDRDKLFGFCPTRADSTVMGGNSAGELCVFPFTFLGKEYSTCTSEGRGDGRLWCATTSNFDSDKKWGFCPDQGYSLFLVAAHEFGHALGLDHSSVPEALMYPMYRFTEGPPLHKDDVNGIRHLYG
Protocol: as §1

MMP-8 = target: T3, MMP-8 (Homo sapiens, UniProt P22894); experiment: fluorometric MMP inhibition assay, MMP-8 catalytic domain; assay type: biochemical; conditions: for Ligand Efficiency MMP-8: calculated from IC50 values of Table 2; for IC50: catalytic domain, fluorometric assay, mean ± SEM of at least 3 experiments
T3 construct: Catalytic domains of MMP-2, -8, -9, and -13 were obtained from Enzo Life Sciences; purchased Enzo Life Sciences
T3 sequence (P22894 100-262 limits assumed): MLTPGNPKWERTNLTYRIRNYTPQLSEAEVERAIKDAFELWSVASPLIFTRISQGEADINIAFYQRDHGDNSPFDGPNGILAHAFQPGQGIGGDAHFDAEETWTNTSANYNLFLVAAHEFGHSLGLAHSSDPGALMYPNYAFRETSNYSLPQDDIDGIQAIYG
Protocol: as §1

MMP-2 = target: T4, MMP-2 (Homo sapiens, UniProt P08253); experiment: fluorometric MMP inhibition assay, MMP-2 catalytic domain; assay type: biochemical; conditions: for Ligand Efficiency MMP-2: calculated from IC50 values of Table 2; for IC50: catalytic domain, fluorometric assay, mean ± SEM of at least 3 experiments; for selectivity toward MMP-8 (MMP-2 inhibition versus MMP-8): ratio IC50 MMP-8 / IC50 MMP-2
T4 construct: Catalytic domains of MMP-2, -8, -9, and -13 were obtained from Enzo Life Sciences; purchased Enzo Life Sciences
T4 sequence (P08253 110-446 limits assumed): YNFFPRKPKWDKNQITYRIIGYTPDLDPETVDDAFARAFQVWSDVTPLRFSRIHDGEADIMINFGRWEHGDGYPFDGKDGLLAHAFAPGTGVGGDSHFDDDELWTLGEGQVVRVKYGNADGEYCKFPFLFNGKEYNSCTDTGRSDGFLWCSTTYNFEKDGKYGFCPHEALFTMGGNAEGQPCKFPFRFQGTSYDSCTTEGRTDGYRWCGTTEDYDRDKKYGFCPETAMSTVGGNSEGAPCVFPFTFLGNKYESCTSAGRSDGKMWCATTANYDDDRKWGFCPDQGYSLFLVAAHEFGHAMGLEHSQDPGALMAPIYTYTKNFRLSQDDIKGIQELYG
Protocol: as §1

MMP-9 [2] = target: T2, MMP-9; parameters: method as in PMID 21714093; conditions: inhibition values from literature; cited from earlier work

Structure (SMILES)	Ligand Efficiency MMP-13 (MMP-13)	IC50 (MMP-13) [µM]	Selectivity MMP-2/13 (MMP-13)	Selectivity MMP-8/13 (MMP-13)	Selectivity MMP-9/13 (MMP-13)	IC50 (MMP-9 [1]) [µM]	Ligand Efficiency MMP-8 (MMP-8)	IC50 (MMP-8) [µM]	Ligand Efficiency MMP-2 (MMP-2)	IC50 (MMP-2) [µM]	melting point [°C]	Ligand Efficiency MMP-9 (MMP-9 [1])	selectivity toward MMP-8 (MMP-2 inhibition versus MMP-8) (MMP-2)	IC50 (MMP-9 [2]) [µM]
O=P(O)(O)C(Nc1nc2ccccc2s1)P(=O)(O)O [Compound 1, (Benzo[d]thiazol-2-amino)methyl-1,1-bisphosphonic acid]	0.38	6.5 ± 1.2	1.95	12.97	>15.4	> 100	0.30	84.3 ± 2.1	0.36	12.7 ± 0.8				
O=P(O)(O)C(Nc1nc2ccc(F)cc2s1)P(=O)(O)O [Compound 2, (6-fluorobenzo[d]thiazol-2-amino)methyl-1,1-bisphosphonic acid]	0.37	4.25 ± 0.35	2.12	7.55	6.24	26.5 ± 2.7	0.31	32.1 ± 1.9	0.35	9 ± 0.9	> 250	0.31		
O=P(O)(O)C(Nc1nc2ccc(Cl)cc2s1)P(=O)(O)O [Compound 3, (6-chlorobenzo[d]thiazol-2-amino)methyl-1,1-bisphosphonic acid]	0.41	1.23 ± 0.12	2.15	11.87	15.20	18.7 ± 2.9	0.33	14.6 ± 0.2	0.38	2.64 ± 0.04	> 250	0.32		
O=[N+]([O-])c1ccc2nc(NC(P(=O)(O)O)P(=O)(O)O)sc2c1 [Compound 4, (6-nitrobenzo[d]thiazol-2-amino)methyl-1,1-bisphosphonic acid]	0.35	2.25 ± 0.15	2.00	4.00	3.42	7.7 ± 1.1	0.31	9 ± 0.4	0.33	4.5 ± 0.5	> 250	0.32		
O=C(Nc1ccc2nc(NC(P(=O)(O)O)P(=O)(O)O)sc2c1)c1ccccc1 [Compound 5, (6-benzamidobenzo[d]thiazol-2-amino)methyl-1,1-bisphosphonic acid]	0.30	0.67 ± 0.025	1.73	13.43	9.40	6.3 ± 0.9	0.25	9 ± 0.3	0.29	1.16 ± 0.18	> 250	0.25	7.76	
O=C(Nc1ccc2nc(NC(P(=O)(O)O)P(=O)(O)O)sc2c1)c1ccc(Br)cc1 [Compound 6, (6-(4-bromobenzamido)benzo[d]thiazol-2-amino)methyl-1,1-bisphosphonic acid]	0.24	6.7 ± 0.5	2.06	8.96	>14.92	> 100	0.19	60 ± 2.6	0.22	13.8 ± 0.9	> 250			
O=C(Nc1ccc2nc(NC(P(=O)(O)O)P(=O)(O)O)sc2c1)c1ccc([N+](=O)[O-])cc1 [Compound 7, (6-(4-nitrobenzamido)benzo[d]thiazol-2-amino)methyl-1,1-bisphosphonic acid]	0.28	0.5 ± 0.01	1.96	13.40	10.80	5.4 ± 1.1	0.23	6.7 ± 0.8	0.27	0.98 ± 0.16	> 250	0.23	6.84	
O=C(Cc1ccccc1)Nc1ccc2nc(NC(P(=O)(O)O)P(=O)(O)O)sc2c1 [Compound 8, (6-(2-phenylacetamido)benzo[d]thiazol-2-amino)methyl-1,1-bisphosphonic acid]	0.24	9.3 ± 0.7	0.26	1.16	2.37	22 ± 8	0.23	10.8 ± 3.1	0.27	2.4 ± 0.5	> 250	0.22		
O=C(Nc1ccccc1)Nc1ccc2nc(NC(P(=O)(O)O)P(=O)(O)O)sc2c1 [Compound 9, (6-(3-phenylureido)benzo[d]thiazol-2-amino)methyl-1,1-bisphosphonic acid]	0.23	11.5 ± 1.9	0.26	1.30	1.18	13.6 ± 1.4	0.23	15 ± 5	0.26	3 ± 0.4	> 250	0.23		
O=C1c2ccccc2C(=O)N1c1ccc2nc(NC(P(=O)(O)O)P(=O)(O)O)sc2c1 [Compound 10, (6-(1,3-dioxoisoindolin-2-yl)benzo[d]thiazol-2-amino)methyl-1,1-bisphosphonic acid]	0.23	10.9 ± 2.4	0.16	1.10	0.50	5.4 ± 1.6	0.23	12 ± 0.4	0.26	1.69 ± 0.08	> 250	0.24		
CC(N)C(=O)Nc1ccc2nc(NC(P(=O)(O)O)P(=O)(O)O)sc2c1 (stereo not drawn) [Compound 11]	0.23	61.9 ± 1.3	0.15	0.87	>1.62	> 100	0.23	54 ± 6	0.28	9.4 ± 2	> 250			
O=P(O)(O)C(CNc1nc2ccc(Cl)cc2s1)P(=O)(O)O [Compound 12, (6-chlorobenzo[d]thiazol-2-amino)ethyl-1,1-bisphosphonic acid]	0.40	0.82 ± 0.06	5.73	25.98	44.63	36.6 ± 1.8	0.31	21.3 ± 1.7	0.35	4.7 ± 1.1	> 250	0.29		
O=P(O)(O)C(NS(=O)(=O)c1ccc(-c2ccccc2)cc1)P(=O)(O)O [ML115, reference compound]	0.34	0.6 ± 0.3	0.23	0.67	>166.67		0.35		0.38					> 100
